Literature values in patent US10314848B2, “Use of testosterone and a 5-HT1A agonist in the treatment of sexual dysfunction” (EB IP LYBRIDOS B.V., priority 2006, dated 2019).

SMILES | Time to peak plasma concentration after administration (in vivo) | Time to maximum plasma concentration (in vivo) | half-life (single doses)
CCCc1nc(C)c2c(=O)nc(-c3cc(S(=O)(=O)N4CCN(CC)CC4)ccc3OCC)[nH]n12.Cl [vardenafil, piperazine, 1-[[3-(1,4-dihydro-5-methyl-4-oxo-7-propylimidazo[5,1-f][1,2,4]triazin-2-yl)-4-ethoxyphenyl]sulfonyl]-4-ethyl-, monohydrochloride] | about 1 hour | – | –
O=C(NCCN1CCN(c2cccc3c2OC[C@H](CO)O3)CC1)c1ccc(F)cc1 [flesinoxan] | – | 1 to 2 h | 5.5 h
